Measurements: US20200345746A1, “Oxazine Derivative for Use in the Prevention of Alzheimer's Disease in at Risk Patents” (Novartis AG, priority 2016, published 2020)

Tests used:
Aβ42 = assay: Triton TX-100 soluble Aβ42 in APP23 mouse brain; format: in vivo; settings: APP23 mice
Procedure: Frozen mouse forebrains were weighed and homogenized in 9 volumes (w/v) of ice-cold TBS-Complete (20 mM Tris-HCl pH 7.4, 137 mM NaCl, 1× Complete [Protease Inhibitor Cocktail Tablets: 1 836 145, Roche Diagnostics GmbH, Penzberg, Germany]) by sonication (90% duty cycle, output control 5, 40-55 pulses, [Sonifier 450, Branson]). After homogenization several 50 μl aliquots were prepared for analysis and were stored at −80° C.
Human Aβ40 and 42 in mice was determined with the Meso Scale Discovery (MSD) 96-well MULTI-ARRAY human/rodent (6E10) Aβ40/42 Assay (Meso Scale Discovery, Rockville, Md., USA). The assay was performed according to the manufacturer's instructions except for the calibration curve and the sample preparations. […]
The calibration curve was prepared in a corresponding dilution of 1% Blocker A solution spiked with synthetic Aβ1-40 peptide (1.56-100 pg/ml) except for non-transgenic mouse brain samples: In this case, the calibration curve was prepared in a correspondingly diluted APP knockout mouse forebrain spiked with synthetic Aβ1-40 peptide (1.56-100 pg/ml). […] The relative units for samples and standards were imported into SOFTmax PRO 4.0 for calculation of standard curves and quantification of samples. […]

[1] = Body weight, chronic 8-week dosing in wild-type mice; format: in vivo, mouse; settings: C57BL/6 mice, 8 weeks chronic treatment
Procedure: Compound 1 and NB-360 were formulated as a suspension. […] Vehicle: […] in 0.5% methylcellulose in water.
Body weight was taken 3 times per week (Monday, Wednesday, Friday). Subjective scoring of any hair colour changes was performed once weekly (Wednesday). Scores (% of body with grey fur): 0: No change; 1: Spots; 2: >30%; 3: >50%; 4: >75%; 5: 100%. Animals were photo-documented when fur color change was observed. Final fur color scoring was performed blinded and by a person not involved in the study.

IBA1 positive microglia = IBA1 positive microglia in APP23 mice; format: in vivo, mouse; settings: for Distal IBA1+ area / Non-plaque-associated IBA1+ area* / Plaque-associated IBA1+ area / Proximal IBA1+ area / Total IBA1+ area: normalized by total area, mean + SEM
Procedure: Amyloid plaques were stained using the same antibody and the microglia cells were detected using a rabbit anti-IBA1 antibody (reference 019-19741) from Wako Chemicals GmbH (Neuss, Germany) and diluted at 1/200 in antibody diluent. The staining protocol was exactly similar to the protocol for amyloid-beta plaques and astrocytes. The slides were scanned with the same settings.
For the beta-amyloid plaque and neuroinflammation analysis, the following sequence of steps was performed: • Slides were scanned with Hamamatsu Nanozoomer at 40× magnification. For each fluorescence labelling (DAPI, FITC and TRITC), a separate image was created • Manually outline ROIs (regions of interest) for defining cortex in brain sections for Aβ plaque assessment on the green FITC channel image, then use the resulting outline also for the other two channel images (copy resulting xml files) • Run the in-house developed ImageScope (V12.1.0.5029, Aperio Inc., USA) plug-in for creation and export of *.tif image tiles (at 10× magnification) for each of the 3 fluorescence channels
Image Batch Processing: • Obtain the combined true color image (DAPI, FITC, TRITC) for each section through accessing each individual fluorescence channel image • Segmentation of valid sample (within outlined ROI) from black unstained background • Apply adaptive thresholding technique for segmentation of objects in green channel image
(FITC-labeled Aβ plaques) • Separation of touching objects for correct subsequent individual object analysis after elimination of too small debris showing signal in the green (FITC) channel • Segmentation of TRITC-labeled objects in red channel (specific for GFAP or Iba1 staining indicating astrocytes or microglia) through morphological tophat transformation and thresholding • Feature based object classification
Computation of several morphometric and densitometric features for valid plaques • Number of plaques • “Specific optical density” which has been described to reflect the amount of protein (antigen) concentration, based on measuring and using the staining intensity of an appropriate antibody in a non-linear way (Rahier et al., 1989; Ruifrok et al., 2001) • assessment of “plaque-associated GFAP or Iba1” based on the ratio of TRITC+ signal vs plaque area, “proximal GFAP or Iba1” based on ratio of TRITC+ signal within dilation ring around plaque

[2] = 3-month dose-ranging study: plasma pharmacokinetics (Cmax,ss); format: in vivo, human; settings: Day 91, 85 mg qd.
[3] = Drug-drug interaction study: PK of Compound 1 with the strong CYP3A4 inducer rifampicin; format: in vivo, human; settings: healthy volunteers, with rifampicin 600 mg q.d. vs Compound 1 alone
in vivo = settings: C57BL/6, mouse; for AUC(0-t): po, AUCblood (AUC0-24 h)
Text: Blood samples were used to analyze whole-blood compound levels and were obtained either from tail-vein during the in-life part into EDTA tubes (CB300, Sarstedt, Germany) or from trunk blood at the day of necropsy into EDTA Eppendorf tubes (Milian S A, CatNoTOM-14, Fisher Scientific, Wohlen, Switzerland), or into serum tubes (CB300Z, Sarstedt, Nümbrecht, Germany).
Brain was removed immediately after decapitation, rinsed with saline and sectioned sagitally down the midline. The left half of the cerebellum was used to analyze compound level and was placed into a glass tube (Chromacol, 125×5-SV T051, Welwyn Garden City, United Kingdom), weighed and frozen in dry-ice, the left half of the forebrain (without olfactory bulb) was used for Aβ analysis, and was frozen on a metal plate on dry ice and placed into protein Lo-bind tube (003 0108.116, Eppendorf, Hamburg, Germany).
Ventral and dorsal skin were taken to analyze compound level, weighed and frozen on dry-ice.
Brain samples were mixed with 2 volumes of KH2PO4 buffer and homogenized using the Covaris® device. Skin samples were mixed with approx. 6-fold volumes of methanol/water and homogenized using a Precellys tube. Either 30 μL of blood, brain or skin homogenate were spiked with a structurally related internal standard and subsequently mixed with an at least 6-fold excess volume acetonitrile for protein precipitation. The supernatant was injected directly into the LC/MS/MS system for analysis.
For tissue exposure, only data at 4 and 24 h were available.

## C[C@@]1(c2nc(NC(=O)c3ncc(C(F)(F)F)cc3Cl)ccc2F)CO[C@@](C)(C(F)(F)F)C(N)=N1 [Compound 1, N-(6-((3R,6R)-5-amino-3,6-dimethyl-6-(trifluoromethyl)-3,6-dihydro-2H-1,4-oxazin-3-yl)-5-fluoropyridin-2-yl)-3-chloro-5-(trifluoromethyl)picolinamide]
Aβ42; 0.03 g/kg vs vehicle
  Aβ42 change vs vehicle (Triton TX-100 soluble, brain): −20.1%
Aβ42; 0.3 g/kg vs vehicle
  Aβ42 change vs vehicle (Triton TX-100 soluble, brain): −77.3%
[1]
  body weight difference compared to vehicle: No overall significant body weight difference
IBA1 positive microglia; APP23, 0.03 g/kg food
  Distal IBA1+ area: 2.74 ± 0.42
  Non-plaque-associated IBA1+ area*: 3.98 ± 0.54
  Plaque-associated IBA1+ area: 1.79 ± 0.51
  Proximal IBA1+ area: 1.23 ± 0.22
  Total IBA1+ area: 5.76 ± 0.83
IBA1 positive microglia; APP23, 0.03 g/kg vs vehicle
  Distal IBA1+ area, change vs vehicle: −28.9%
  Non-plaque-associated IBA1+ area*, change vs vehicle: −39.2%
  Plaque-associated IBA1+ area, change vs vehicle: −40.5%
  Proximal IBA1+ area, change vs vehicle: −47.4%
  Total IBA1+ area, change vs vehicle: −37.4%
IBA1 positive microglia; APP23, 0.3 g/kg food
  Distal IBA1+ area: 5.05 ± 0.98
  Non-plaque-associated IBA1+ area*: 5.70 ± 1.00
  Plaque-associated IBA1+ area: 0.88 ± 0.19
  Proximal IBA1+ area: 0.65 ± 0.05
  Total IBA1+ area: 6.31 ± 0.92
IBA1 positive microglia; APP23, 0.3 g/kg vs vehicle
  Distal IBA1+ area, change vs vehicle: +30.7%
  Non-plaque-associated IBA1+ area*, change vs vehicle: −8.2%
  Plaque-associated IBA1+ area, change vs vehicle: −70.6%
  Proximal IBA1+ area, change vs vehicle: −72.2%
  Total IBA1+ area, change vs vehicle: −28.5%
[2]
  Cmax, ss, Mean: 602 ng/mL
[3]
  decrease of mean AUC of Compound 1: 5-6 fold
  decrease of mean Cmax of Compound 1: 2.5 fold
In vivo
  Kp: 3.2
In vivo; 8 umol/kg
  AUC(0-t): 3.43 µM·h
In vivo; 50 umol/kg
  AUC(0-t): 28.9 µM·h
